Reference: ChEMBL document CHEMBL3301361, “Experimental in vitro DMPK and physicochemical data on a set of publicly disclosed compounds”

Assay: physchem
Conditions: octan-1-ol/water, pH 7.4, LogD7.4

Compound | logD
CC(C)C(NC(=O)Cn1c(-c2ccccc2)ccc(NC(=O)Cc2ccc(C(=O)O)cc2)c1=O)C(=O)C(F)(F)F (stereo not given) | 0.35
CC(=N)NCc1ccccc1 | -0.28
O=c1[nH]n(Cc2ccncc2)c(=O)c2c(=O)c3ccc(Cl)cc3[nH]c12 | -0.16
CC(=O)Nc1ccccn1 | 0.5
Cc1nnc(N)s1 | -0.4
C=CCc1cc(NC(C)=O)ccc1OCCCNC(C)C | -0.01
Cc1c(CCC(=O)O)c(=O)oc2cc(O)ccc12 | -0.7
CC(=O)Nc1nc(N)n(-c2ccccc2)n1 | -0.2
N=C(N)Nc1ccc(C(=O)Oc2ccccc2)cc1 | -0.21
CC(=O)Nc1ccc(S(=O)(=O)Nc2ccccn2)cc1 | 0.24
CC(C)(C)c1cc(O)n2nc(N)nc2n1 | -0.2
O=C(Nc1ccccc1)Nc1ccccc1C(=O)O | -0.12
Nc1ccnc(-c2cccnc2)n1 | 0.44
Oc1cc(-c2ccccc2)nc2ncnn12 | -0.21
CCS(=O)(=O)c1ccc(-c2cc(C(F)(F)F)ccc2O[C@H](C)C(=O)O)c(C)c1 | -0.4
O=C(O)CCn1c2ccccc2c2ccccc21 | 0.6
Cc1c(CCC(=O)O)c(=O)oc2c(C)c(O)ccc12 | -0.3
CNC(=O)c1cnn(-c2ccccc2)c1NS(=O)(=O)c1ccc(C)cc1 | -0.54
O=C(N[C@@H](Cc1ccc(CCCCNc2ccccn2)cc1)C(=O)O)c1c(Cl)cccc1Cl | 0.51
CC1CC(=O)Nc2ccccc2N1 (stereo not given) | 0.56

Compound | logD
Nc1nnc(CCSCCc2nnc(N)s2)s1 | -0.1
O=S(=O)(Nc1cccnc1)c1cccs1 | 0.54
OCC[C@]1(c2ccc(Cl)c(Cl)c2)CCCNC1 | 0.61
OCC[C@@]1(c2ccc(Cl)c(Cl)c2)CCCNC1 | 0.62
OCC[C@]1(c2cc3ccccc3o2)CCCNC1 | 0.12
OCC[C@@]1(c2cc3ccccc3o2)CCCNC1 | 0.06
CC1(c2ccccc2)CC(=O)NC(N)=N1 (stereo not given) | 0.62
O=S(=O)(Nc1nccs1)c1ccc(O)cc1 | 0.36
NCc1nc2ccccc2[nH]1 | 0.4
Cc1cccc(Br)c1C(=O)N[C@@H](Cc1ccc(NC(=O)c2c(Cl)cccc2Cl)cc1)C(=O)O | -0.13
N=C(N)NCCC[C@H](NC(=O)COCC(c1ccccc1)c1ccccc1)C(=O)O | 0.18
N=C(N)Nc1ccc(Cl)c(Cl)c1 | -0.31
CC(C)C(NC(=O)Cn1c(-c2ccccc2)ccc(NC(=O)Cc2cccc(C(=O)O)c2)c1=O)C(=O)C(F)(F)F (stereo not given) | 0.68
O=C(COc1ccc(OCCNCC(O)COc2ccccc2)cc1)NCCO (stereo not given) | 0.42
N=C(N)Nc1ccc(C(=O)Oc2ccc([N+](=O)[O-])cc2)cc1 | 0.5
NNc1nc2ccccc2[nH]c1=O | 0.44
O=c1ccnc2ccccn12 | 0.2
Nc1nc(N)c2nc(CO)cnc2n1 | -0.45
COc1cccc(OC)c1-c1ccc(C[C@H](NC(=O)c2c(Cl)cccc2Cl)C(=O)O)cc1 | -0.27

Next, values leading:

logD | Compound
0.68 | CC(C)C(NC(=O)Cn1c(-c2cccs2)ncc(N)c1=O)C(=O)C(F)(F)F (stereo not given)
0.66 | COC(=O)c1c(O)cccc1OC/C=C/c1ccc(F)c(-c2cc(C(=O)O)no2)c1
0.49 | NC(=O)c1cccc(OC2CCN(CC3CC3)CC2)c1
0.48 | CNS(=O)(=O)CCc1ccc2[nH]cc(C3CCN(C)CC3)c2c1
0.64 | Cc1nc(C(=O)N2CCCC3(CCN(Cc4ccc(Cl)cc4)CC3)C2)cs1
0.24 | Cc1nc(C(=O)N2CCCC3(CCN(Cc4ccccc4)CC3)C2)cs1
0.6 | c1ccc2nc(C3=NCCN3)ccc2c1
0.6 | O=c1c2ccccc2nc2n1CCO2
0 | CN1CCN(CC(=O)Nc2c(C#N)cnn2-c2ccccc2)CC1
0.4 | CCN(CC)CC(=O)Nc1c(C#N)cnn1-c1ccccc1
0.3 | O=C(O)c1ccc(-c2nnn(Cc3ccccc3F)n2)cc1
0.31 | CC1CN(Cc2cc(Cl)ccc2OCC(=O)O)CCN1S(=O)(=O)c1ccccc1 (stereo not given)
-0.41 | COC[C@H](C)Oc1cc(Oc2ccc(S(C)(=O)=O)cc2)cc(C(=O)Nc2ccc(C(=O)O)cn2)c1
0.29 | COc1ccc(-c2cc(C(F)(F)F)ccc2OCC(=O)O)cc1
0.01 | CCC(c1nc2ccsc2c(=O)n1Cc1cccnc1)N(CCCN)C(=O)c1ccc(C)cc1 (stereo not given)
0.02 | CCC(c1nc2ccsc2c(=O)n1Cc1cscn1)N(CCCN)C(=O)c1ccc(C)cc1 (stereo not given)
-0.04 | CCC(c1nc2ncccc2c(=O)n1Cc1ccccc1)N(CCCN)C(=O)c1ccc(C)cc1 (stereo not given)
0.29 | COc1ccc2c(C)nc(=O)n(CCN3CCC(NCc4cc5c(cn4)OCCO5)CC3)c2c1
-0.14 | COc1ncc2ncc(=O)n(CCN3CCC(NCc4cc5c(cn4)OCCO5)CC3)c2n1
0.29 | CCS(=O)(=O)c1ccc(Oc2c(C)n(CC(=O)O)c3ccc(C(F)(F)F)cc23)cc1
0.35 | Cc1ccc2c(n1)c(Sc1ccc(Cl)cc1)c(C)n2CC(=O)O
-0.06 | C[C@H]1O[C@@H](n2cnc3c(N)nc(OC4CCOC4)nc32)[C@H](O)[C@@H]1O (stereo not given in full)
-0.54 | COCCNCc1ccc(CCNC[C@H](O)c2ccc(O)c3[nH]c(=O)sc23)cc1

logD | Compound
-0.55 | CN[C@@H](C)C(=O)N[C@H](C(=O)N[C@H]1CCCN(CCc2ccccn2)C1)C(C)(C)C
-0.51 | N=C(N)NC(=O)c1nc(Cl)c(NCc2ccncc2)nc1N
-0.56 | N=C(N)NC(=O)c1nc(Cl)c(NCc2ccccn2)nc1N
0.25 | COc1ccc(-c2nc3c(NCCCNC(=O)c4ccccc4)c(Br)cnc3[nH]2)cc1
-0.04 | O=C(NS(=O)(=O)c1ccc(NCCSc2ccccc2)c([N+](=O)[O-])c1)c1ccc(N2CCNCC2)cc1
0.52 | CNc1cccc(CCOc2ccc(C[C@H](NC(=O)c3c(C)cc(C)cc3C)C(=O)O)cc2)n1
-0.48 | O=C(N[C@@H](Cc1ccc(OCCNc2ccccn2)cc1)C(=O)O)c1c(Cl)cccc1Cl
0.16 | O=C(N[C@@H](Cc1cccc(OCCCNc2ccccn2)c1)C(=O)O)c1c(Cl)cccc1Cl
-0.63 | O=C(Cc1ccc2c(n1)NCCC2)Nc1ccc(C[C@H](NC(=O)c2c(Cl)cccc2Cl)C(=O)O)cc1
0.5 | CCCSc1nc2ccc(NC(=O)CCC(=O)O)cc2s1
0.61 | N#Cc1ccc(-c2cc(NC(N)=O)c(C(=O)N[C@H]3CCCNC3)s2)cc1
-0.62 | COc1c(N2CCO[C@@H](CN(C)C)C2)c(F)cc2c(=O)c(C(=O)O)cn(C3CC3)c12
0.4 | NC(=O)C1CCN(CC(=O)Nc2ccc3c(c2)OCO3)CC1
0.66 | O=C(O)CCCS(=O)(=O)c1cccc(C(=O)N2CCC(N3CCC(Oc4ccc(Cl)c(Cl)c4)CC3)CC2)c1
0.64 | CCCSc1c(C(=O)NC2CCCCC2)cnn1-c1ccc(C(=O)O)cc1
0.59 | CCCSc1c(C(=O)N(C)C2CCCCC2)cnn1-c1ccc(C(=O)O)cc1
-0.12 | Nc1nc2cc3c(cc2s1)CCN(Cc1cnc[nH]1)CC3
0.53 | Cc1cc(N)c2cc(NC(=O)CCCCC(=O)Nc3ccc4nc(C)cc(N)c4c3)ccc2n1
0.61 | O=S(=O)(NCCNc1ncccn1)c1cccc2cnccc12
0.08 | O=C(N[C@@H](Cc1ccc(N2CCN(c3ccccc3)CC2)cc1)C(=O)O)c1c(Cl)cccc1Cl
0.2 | c1ccc(OCC2CNCCO2)cc1 (stereo not given)
-0.49 | Cc1nc(NC(=N)N)nc2ccccc12
0.49 | Cc1cc(C)c(C(=O)N[C@@H](Cc2ccc(OCCCNc3ccccn3)cc2)C(=O)O)c(C)c1
